In patent publication US20230103631A1, “PEPTIDES AS SELECTIVE GIP RECEPTOR AGONISTS” (Sanofi, priority 2020, published 2023):
*1 amine or outer side, *2 acyl side, *3 side chain or, on linkers, in order; H or OH if unused. Where a SMILES comes first, the peptide text is derived from it. Side-chain parts run from the residue outwards. [ ]: non-standard residue; d: D form. The star is where a group is joined. C18 diacid = O=C(O)CCCCCCCCCCCCCCCCC(=O)*; γGlu = O=C(O)[C@H](CCC(=O)[*:2])N[*:1]; NMeY = CN[C@@H](Cc1ccc(O)cc1)C(=O)O; AEEA = NCCOCCOCC(=O)O; Aib = CC(C)(N)C(=O)O; Sar = CNCC(=O)O

Key:
[1] = ThT assay for the assessment of physical stability; assay type: physicochemical; conditions: ThT buffer system A: 100 mM phosphate buffer pH 7.4; 3 mg/ml, 37° C.
Description: Low physical stability of a peptide solution may lead to amyloid fibril formation, which is observed as well-ordered, thread-like macromolecular structures in the sample, which eventually may lead to gel formation. Thioflavin T (ThT) is widely used to visualize and quantify the presence of misfolded protein aggregates [Biancalana et al., Biochim. Biophys. Acta 2010, 1804(7), 1405]. […] Enzymol. 1999, 309, 274]. The time course for fibril formation often follows the characteristic shape of a sigmoidal curve and can be separated into three regions: a lag phase, a fast growth phase, and a plateau phase.
The typical fibril formation process starts with the lag phase in which the amount of partially folded peptide turned into fibrils is not significant enough to be detected. The lag-time corresponds to the time the critical mass of the nucleus is built. Afterwards, a drastic elongation phase follows, and fibril concentration increases rapidly.
Investigations were carried out to determine fibrillation tendencies under stress conditions by shaking at 37° C. within Fluoroskan Ascent FL or Fluoroskan Ascent.
For the tests in Fluoroskan Ascent (FL), 200 μl sample were placed into a 96-well mictrotiter plate PS, flat bottom, Greiner Fluotrac No. 655076. Plates were sealed with Scotch Tape (Qiagen). Samples were stressed by continuous cycles of 10 sec shaking at 960 rpm and 50 sec rest period at 37° C. The kinetic was monitored by measuring fluorescence intensity every 20 min.
Peptides were diluted in a buffer system to a final concentration of 3 mg/ml. 20 μl of a 10.1 mM ThT solution in H2O were added to 2 ml of peptide solution to receive a final concentration of 100 μM ThT. For each sample eight replicates were tested.
ThT buffer system A) 100 mM phosphate buffer pH 7.4
ThT buffer system B) 100 mM phosphate buffer pH 7.4, 2.7 mg/ml m-cresol
Lag time in hours (h) in Thioflavin T (ThT) assay of peptide samples was determined in ThT buffer system A as described in Methods.

[2] = Chemical stability assessment (relative purity loss by UHPLC-UV); assay type: physicochemical; conditions: Chemical stability buffer system A: 20 mM phosphate buffer pH 7.4
Method: Purity of a peptide batch was determined through UHPLC/MS prior to chemical stability measurement. The target concentration was […] pure compound. Solutions from solid samples were prepared in the following buffer systems with a concentration of ˜300 μM compound based on the previously determined % purity:
Chemical stability buffer system A) 20 mM phosphate buffer pH 7.4,
Chemical stability buffer system B) 8 mM phosphate buffer pH 7.4, 14 mg/ml propylene glycol, 5.5 mg/ml phenol
Chemical stability buffer system C) 100 mM phosphate buffer pH 7.4, 2.7 mg/ml m-cresol
Prepared solutions were filtered through […] pore size and filled into sterilized glass containers under laminar flow conditions.
Glass containers were stored for 28 days at 5 and 40° C. After this time, the samples were centrifuged for 15 min at 2500 RCF. Then 1.5 μl of the undiluted supernatant were analysed with UHPLC-UV.
The chemical stability was rated through the relative loss of purity calculated by the equation:
[(purity after 28 days at 5° C.)−(purity after 28 days at 40° C.)]/(purity after 28 days at 5° C.)]*100%
The purity is calculated as
[(peak area peptide)/(total peak area)]*100%
The analytical methods used were Analytical UHPLC Method B or C.
Peptide samples were prepared in Chemical stability buffer system A or B and stability was assessed as described in Methods.

[3] = biological target: human GLP-1 receptor (hGLP-1R) (Homo sapiens, UniProt P43220); test: cAMP HTRF assay, HEK-293 cell line over-expressing human GLP-1 receptor; assay type: cell-based; conditions: HEK-293, cAMP, 0% HSA
Summary of the method: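 Thawed HEK-293 cells over-expressing human GLP-1R (5000 cells/well) in HBSS/20 mM HEPES buffer, with 0.1% HSA where stated, incubated with compound for 30 min at room temperature. Generated cAMP quantified by HTRF.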

physchem = assay type: physicochemical; conditions: for Soluble amount: 24 h, pH 7.4; for solubility at 24 h: pH 7.4, Soluble amount
Summary of the method: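 Peptide at 10 mg/ml (purity-corrected) in 100 mM phosphate pH 7.4, alone or with 2.7 mg/ml m-cresol; 1 h gentle agitation, then 24 h at 5 °C. Supernatant after 15 min at 2500 RCF quantified by UHPLC-UV against reference peptide, adjusted for extinction coefficients.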

human GLP-1 receptor (hGLP-1R), sequence (P43220 24-463): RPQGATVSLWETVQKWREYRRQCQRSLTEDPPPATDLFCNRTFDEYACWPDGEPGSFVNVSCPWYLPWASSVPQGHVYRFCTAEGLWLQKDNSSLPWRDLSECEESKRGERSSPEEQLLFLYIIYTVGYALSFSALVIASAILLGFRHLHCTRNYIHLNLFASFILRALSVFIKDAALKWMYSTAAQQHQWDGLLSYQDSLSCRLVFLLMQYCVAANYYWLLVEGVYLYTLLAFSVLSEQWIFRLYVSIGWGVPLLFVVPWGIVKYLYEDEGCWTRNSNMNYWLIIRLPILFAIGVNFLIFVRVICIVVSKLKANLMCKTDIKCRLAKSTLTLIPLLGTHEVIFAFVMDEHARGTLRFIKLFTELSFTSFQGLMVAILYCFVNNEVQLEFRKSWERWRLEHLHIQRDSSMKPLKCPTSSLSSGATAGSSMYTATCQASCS

With `CC[C@H](C)[C@H](NC(=O)[C@H](CCCNC(=N)N)NC(=O)[C@H](CC(=O)O)NC(=O)[C@H](CCCCNC(=O)CNC(=O)CNC(=O)CNC(=O)CC[C@H](NC(=O)CCCCCCCCCCCCCCCCC(=O)O)C(=O)O)NC(=O)C(C)(C)NC(=O)[C@@H](NC(=O)[C@H](CO)NC(=O)[C@H](CC(C)C)NC(=O)[C@H](CC(=O)O)NC(=O)[C@H](CO)NC(=O)[C@@H](NC(=O)[C@H](Cc1ccccc1)NC(=O)[C@@H](NC(=O)CNC(=O)[C@H](CCC(=O)O)NC(=O)C(C)(C)NC(=O)[C@@H](N)Cc1ccc(O)cc1)[C@@H](C)O)[C@@H](C)CC)[C@@H](C)CC)C(=O)N[C@@H](Cc1c[nH]cn1)C(=O)N[C@@H](CCC(N)=O)C(=O)NC(C)(C)C(=O)N[C@@H](CCC(=O)O)C(=O)N[C@@H](Cc1ccccc1)C(=O)N[C@H](C(=O)N[C@@H](CCC(=O)O)C(=O)N[C@@H](Cc1c[nH]c2ccccc12)C(=O)N[C@@H](CC(C)C)C(=O)N[C@@H](CC(C)C)C(=O)N[C@@H](C)C(=O)N[C@@H](CCC(N)=O)C(=O)NCC(=O)N1CCC[C@H]1C(=O)N[C@@H](CO)C(=O)N[C@@H](CO)C(=O)NCC(=O)N[C@@H](C)C(=O)N1CCC[C@H]1C(=O)N1CCC[C@H]1C(=O)N1CCC[C@H]1C(=O)N[C@@H](CO)C(N)=O)[C@@H](C)CC` [SEQ ID NO: 5, H2N-Y-Aib-E-G-T-F-I-S-D-I-S-I-Aib-K[{Gly}3-gGlu-C18OH]-D-R-I-H-Q-Aib-E-F-I-E-W-I-L-A-Q-G-P-S-S-G-A-P-P-P-S-NH2] (H-Y[Aib]EGTFISDLSI[Aib]K([Gly-Gly-Gly-γGlu-C18 diacid])DRIHQ[Aib]EFIEWLLAQGPSSGAPPPS-NH2) the “Increase in FI” value [1] was “no”, the “Lag time before increase” value [1] was >45 h and the “Relative purity loss over 28 days at 40° C.” value (“Relative purity loss” for short) [2] was 5.8%. For the same compound, the EC50 [3] was > 10 nM, the Soluble amount (physchem) was >8.3 mg/mL and the solubility at 24 h (physchem) was > 9300 µg/mL.
For `CC[C@H](C)[C@H](NC(=O)[C@H](CCCNC(=N)N)NC(=O)[C@H](CC(=O)O)NC(=O)[C@H](CCCCNC(=O)CN(C)C(=O)CN(C)C(=O)CN(C)C(=O)CC[C@H](NC(=O)CCCCCCCCCCCCCCCCC(=O)O)C(=O)O)NC(=O)C(C)(C)NC(=O)[C@@H](NC(=O)[C@H](CO)NC(=O)[C@H](CC(C)C)NC(=O)[C@H](CC(=O)O)NC(=O)[C@H](CO)NC(=O)[C@@H](NC(=O)[C@H](Cc1ccccc1)NC(=O)[C@@H](NC(=O)CNC(=O)[C@H](CCC(=O)O)NC(=O)C(C)(C)NC(=O)[C@@H](N)Cc1ccc(O)cc1)[C@@H](C)O)[C@@H](C)CC)[C@@H](C)CC)C(=O)N[C@@H](Cc1c[nH]cn1)C(=O)N[C@@H](CCC(N)=O)C(=O)NC(C)(C)C(=O)N[C@@H](CCC(=O)O)C(=O)N[C@@H](Cc1ccccc1)C(=O)N[C@H](C(=O)N[C@@H](CCC(=O)O)C(=O)N[C@@H](Cc1c[nH]c2ccccc12)C(=O)N[C@@H](CC(C)C)C(=O)N[C@@H](CC(C)C)C(=O)N[C@@H](C)C(=O)N[C@@H](CCC(N)=O)C(=O)NCC(=O)N1CCC[C@H]1C(=O)N[C@@H](CO)C(=O)N[C@@H](CO)C(=O)NCC(=O)N[C@@H](C)C(=O)N1CCC[C@H]1C(=O)N1CCC[C@H]1C(=O)N1CCC[C@H]1C(=O)N[C@@H](CO)C(N)=O)[C@@H](C)CC` [SEQ ID NO: 6, H2N-Y-Aib-E-G-T-F-I-S-D-I-S-I-Aib-K[{N-MeGly}3-gGlu-C18OH]-D-R-I-H-Q-Aib-E-F-I-E-W-I-L-A-Q-G-P-S-S-G-A-P-P-P-S-NH2] (H-Y[Aib]EGTFISDLSI[Aib]K([Sar-Sar-Sar-γGlu-C18 diacid])DRIHQ[Aib]EFIEWLLAQGPSSGAPPPS-NH2), the “Increase in FI” value [1] was “no”, the “Lag time before increase” value [1] was >45 h and the “Relative purity loss” value [2] was 5.4%. The EC50 [3] was > 10 nM, the Soluble amount (physchem) was >8.9 mg/mL and the solubility at 24 h (physchem) was > 10800 µg/mL.
With `CC[C@H](C)[C@H](NC(=O)[C@H](CCCNC(=N)N)NC(=O)[C@H](CC(=O)O)NC(=O)[C@H](CCCCNC(=O)COCCOCCNC(=O)COCCOCCNC(=O)CC[C@H](NC(=O)CCCCCCCCCCCCCCCCC(=O)O)C(=O)O)NC(=O)C(C)(C)NC(=O)[C@@H](NC(=O)[C@H](CO)NC(=O)[C@H](CC(C)C)NC(=O)[C@H](CC(=O)O)NC(=O)[C@H](CO)NC(=O)[C@@H](NC(=O)[C@H](Cc1ccccc1)NC(=O)[C@@H](NC(=O)CNC(=O)[C@H](CCC(=O)O)NC(=O)C(C)(C)NC(=O)[C@H](Cc1ccc(O)cc1)NC)[C@@H](C)O)[C@@H](C)CC)[C@@H](C)CC)C(=O)N[C@@H](Cc1c[nH]cn1)C(=O)N[C@@H](CCC(N)=O)C(=O)NC(C)(C)C(=O)N[C@@H](CCC(=O)O)C(=O)N[C@@H](Cc1ccccc1)C(=O)N[C@H](C(=O)N[C@@H](CCC(=O)O)C(=O)N[C@@H](Cc1c[nH]c2ccccc12)C(=O)N[C@@H](CC(C)C)C(=O)N[C@@H](CC(C)C)C(=O)N[C@@H](C)C(=O)N[C@@H](CCC(N)=O)C(=O)NCC(=O)N1CCC[C@H]1C(=O)N[C@@H](CO)C(=O)N[C@@H](CO)C(=O)NCC(=O)N[C@@H](C)C(=O)N1CCC[C@H]1C(=O)N1CCC[C@H]1C(=O)N1CCC[C@H]1C(=O)N[C@@H](CO)C(N)=O)[C@@H](C)CC` [SEQ ID NO: 8, MeHN-Y-Aib-E-G-T-F-I-S-D-I-S-I-Aib-K[{AEEA}2-gGlu-C180H]-D-R-I-H-Q-Aib-E-F--E-W-I-L-A-Q-G-P-S-S-G-A-P-P-P-S-NH2] (H-[NMeY][Aib]EGTFISDLSI[Aib]K([AEEA-AEEA-γGlu-C18 diacid])DRIHQ[Aib]EFIEWLLAQGPSSGAPPPS-NH2) the “Increase in FI” value [1] was “no”, the “Lag time before increase” value [1] was >45 h and the “Relative purity loss” value [2] was 4.7%. The EC50 [3] was > 10 nM, the Soluble amount (physchem) was >6.4 mg/mL and the solubility at 24 h (physchem) was > 7500 µg/mL.
For `CC[C@H](C)[C@H](NC(=O)[C@H](Cc1ccccc1)NC(=O)[C@H](CCC(=O)O)NC(=O)[C@H](CCC(=O)O)NC(=O)[C@H](CCC(N)=O)NC(=O)[C@H](Cc1c[nH]cn1)NC(=O)[C@@H](NC(=O)[C@H](CCCNC(=N)N)NC(=O)[C@H](CC(=O)O)NC(=O)[C@H](CCCCNC(=O)COCCOCCNC(=O)COCCOCCNC(=O)CC[C@H](NC(=O)CCCCCCCCCCCCCCCCC(=O)O)C(=O)O)NC(=O)C(C)(C)NC(=O)[C@@H](NC(=O)[C@H](CO)NC(=O)[C@H](CC(C)C)NC(=O)[C@H](CC(=O)O)NC(=O)[C@H](CO)NC(=O)[C@@H](NC(=O)[C@H](Cc1ccccc1)NC(=O)[C@@H](NC(=O)CNC(=O)[C@H](CCC(=O)O)NC(=O)C(C)(C)NC(=O)[C@@H](N)Cc1ccc(O)cc1)[C@@H](C)O)[C@@H](C)CC)[C@@H](C)CC)[C@@H](C)CC)C(=O)N[C@@H](CCC(=O)O)C(=O)N[C@@H](Cc1c[nH]c2ccccc12)C(=O)N[C@@H](CC(C)C)C(=O)N[C@@H](CC(C)C)C(=O)N[C@@H](C)C(=O)N[C@@H](CCC(N)=O)C(=O)NCC(=O)N1CCC[C@H]1C(=O)N[C@@H](CO)C(=O)N[C@@H](CO)C(=O)NCC(=O)N[C@@H](C)C(=O)N1CCC[C@H]1C(=O)N1CCC[C@H]1C(=O)N1CCC[C@H]1C(=O)N[C@@H](CO)C(=O)O` [SEQ ID NO: 11, H2N-Y-Aib-E-G-T-F-I-S-D-I-S-I-Aib-K[{AEEA}2-gGlu-C18OH]-DRIHQEEFIEWILAQGPSSGAPPPS-OH] (H-Y[Aib]EGTFISDLSI[Aib]K([AEEA-AEEA-γGlu-C18 diacid])DRIHQEEFIEWLLAQGPSSGAPPPS-OH), the “Relative purity loss” value [2] was 6.1%, the EC50 [3] was > 10 nM and the Soluble amount (physchem) was >9.8 mg/mL. The solubility at 24 h (physchem) was > 9800 µg/mL.
